Patent US20230106506A1, “NOVEL PqsR INVERSE AGONISTS” (Helmholtz-Zentrum Fur Infektionsforschung GmbH, priority 2020, published 2023)

Columns and labels:
[1] = tested on: P. aeruginosa pyocyanin production; assay: Pyocyanin assay; type: cell-based, P. aeruginosa strain PA14; settings: Pseudomonas aeruginosa, PA14, 16 h, read-out: IC50-value towards pyocyanin production
Protocol: Inhibition of P. aeruginosa pyocyanin production by compounds was determined photometrically as described before. In short, an overnight culture of PA14 in PPGAS medium was washed, diluted in medium to a start OD600 of 0.02, and incubated for 16 h (37° C., 200 rpm, relative humidity 75%) in the presence of test compounds. Then, cultures were extracted with chloroform and re-extracted with 0.2 M HCl. Protonated red colored pyocyanin was determined by measuring OD520 and normalizing to OD600.

[2] = Kinetic turbidimetric aqueous solubility; type: physicochemical; settings: aqueous buffer, kinetic from dmso stock; PBS buffer, final DMSO 2%, absorbance 620 nm; read-out: Kinetic Turbidimetric Aqueous Solubility at room temperature for 5 min
Protocol: Kinetic Turbidimetric Aqueous Solubility at room temperature for 5 min. […] Data was analyzed by fitting a four parameter sigmoidal function to the measured and normalized absorbances and AUC calculation providing access to Log S (decadic logarithm of the solubility).

[3] = Metabolic stability in mouse liver microsomes (MLM); type: in vitro ADME; settings: 1 μM compound, 0.5 mg/mL MLM, 1 mM NADPH, 37° C., read-out: half-life (t1/2) towards MLM
Protocol: For the evaluation of phase I metabolic stability, the compound (1 μM) was incubated with 0.5 mg/mL MLM (Corning) and 1 mM NADPH at 37° C. for 0, 5, 10, 15 and 30 min. The metabolic stability of Verapamil, Diphenhydramine and Benzydamine (1 μM each) were determined in parallel to confirm the enzymatic activity of the MLM. The incubation was stopped by addition of 2 volumes of acetonitrile containing internal standard (1 μM Leucine Enkephaline). Samples were centrifuged (15 min, 3,500 rpm). Concentration of the remaining test compound at the different time points was analyzed by HPLC-MS/MS and used to determine half-life (t1/2).

Row | Compound | IC50 [1] [nM] | solubility at 5 min [2] [µM] | half-life at 1 µM [3] [h]
1 | CC(C)Oc1ccc(-c2ccc(CNc3cc(-c4cn[nH]c4)nc(C(F)(F)F)c3)nc2)cc1 [Compound 20, N-((5-(4-Isopropoxyphenyl)pyridin-2-yl)methyl)-2-(1H-pyrazol-4-yl)-6-(trifluoromethyl)pyridin-4-amine] | 101 to 200 | > 10 | > 1.67
2 | CC(C)Oc1ccc(-c2ccc(CNc3cc(-c4cn[nH]c4)nc(C(F)(F)F)c3)cn2)cc1 [Compound 21, N-((6-(4-Isopropoxyphenyl)pyridin-3-yl)methyl)-2-(1H-pyrazol-4-yl)-6-(trifluoromethyl)pyridin-4-amine] | 101 to 200 | > 25 | > 1.67
3 | CC(C)Oc1ccc(-c2ccc(CNc3cc(-c4cn[nH]c4)nc(C(F)(F)F)c3)cn2)cc1Cl [Compound 23, N-((6-(3-Chloro-4-isopropoxyphenyl)pyridin-3-yl)methyl)-2-(1H-pyrazol-4-yl)-6-(trifluoromethyl)pyridin-4-amine] | 201 to 500 | > 25 | > 1.67
4 | CC(C)Oc1ccc(-c2ccc(CNc3cc(-c4cn[nH]c4)nc(C(F)(F)F)c3)nc2)cc1Cl [Compound 24, N-((5-(3-Chloro-4-isopropoxyphenyl)pyridin-2-yl)methyl)-2-(1H-pyrazol-4-yl)-6-(trifluoromethyl)pyridin-4-amine] | 201 to 500 | > 10 | > 1.67
5 | CC(C)Oc1ccc(-c2cnc(CNc3cc(-c4cn[nH]c4)nc(C(F)(F)F)c3)cn2)cc1 [Compound 27, N-((5-(4-Isopropoxyphenyl)pyrazin-2-yl)methyl)-2-(1H-pyrazol-4-yl)-6-(trifluoromethyl)pyridin-4-amine] | 101 to 200 | > 25 | > 1.67
6 | CC(C)Oc1ccc(-c2ncc(CNc3cc(-c4cn[nH]c4)nc(C(F)(F)F)c3)cn2)cc1 [Compound 28, N-((2-(4-Isopropoxyphenyl)pyrimidin-5-yl)methyl)-2-(1H-pyrazol-4-yl)-6-(trifluoromethyl)pyridin-4-amine] | ≤ 100 | > 25 | 1.02 to 1.67
7 | CC(C)Oc1ccc(-c2ncc(CNc3cc(-n4ccnc4)nc(C(F)(F)F)c3)cn2)cc1Cl [Compound 30, N-((2-(3-Chloro-4-Isopropoxyphenyl)pyrimidin-5-yl)methyl)-2-(1H-imidazol-1-yl)-6-(trifluoromethyl)pyridin-4-amine] | 101 to 200 | > 10 | > 1.67
8 | CC(C)Oc1ccc(-c2ncc(CNc3cc(-c4cc[nH]n4)nc(C(F)(F)F)c3)cn2)cc1 [Compound 31, N-((2-(4-Isopropoxyphenyl)pyrimidin-5-yl)methyl)-2-(1H-pyrazol-3-yl)-6-(trifluoromethyl)pyridin-4-amine] | 201 to 500 | > 10 | > 1.67
9 | FC(F)(F)c1cc(NCc2cnc(-c3ccc(Cl)cc3)nc2)cc(-c2cn[nH]c2)n1 [Compound 33, N-((2-(4-Chlorophenyl)pyrimidin-5-yl)methyl)-2-(1H-pyrazol-4-yl)-6-(trifluoromethyl)pyridin-4-amine] | 201 to 500 | > 10 | 1.02 to 1.67
10 | Fc1cc(-c2ncc(CNc3cc(-c4cn[nH]c4)nc(C(F)(F)F)c3)cn2)ccc1Cl [Compound 34, N-((2-(4-Chloro-3-fluorophenyl)pyrimidin-5-yl)methyl)-2-(1H-pyrazol-4-yl)-6-(trifluoromethyl)pyridin-4-amine] | 201 to 500 | > 10 | > 1.67
11 | FC(F)(F)c1cc(NCc2cnc(-c3ccc(Cl)c(Cl)c3)nc2)cc(-c2cn[nH]c2)n1 [Compound 35, N-((2-(3,4-Dichlorophenyl)pyrimidin-5-yl)methyl)-2-(1H-pyrazol-4-yl)-6-(trifluoromethyl)pyridin-4-amine] | 101 to 200 | > 10 | > 1.67
12 | N#Cc1cc(-c2ncc(CNc3cc(-n4cncn4)nc(C(F)(F)F)c3)cn2)ccc1Cl [Compound 39, 5-(5-(((2-(1H-1,2,4-Triazol-1-yl)-6-(trifluoromethyl)pyridin-4-yl)amino)methyl)pyrimidin-2-yl)-2-chlorobenzonitrile] | 101 to 200 | > 10 | > 1.67
13 | CC(C)Oc1ccc(-c2cnc(CNc3cc(-n4cncn4)nc(C(F)(F)F)c3)nc2)cc1Cl [Compound 43, N-((5-(3-Chloro-4-isopropoxyphenyl)pyrimidin-2-yl)methyl)-2-(1H-1,2,4-triazol-1-yl)-6-(trifluoromethyl)pyridin-4-amine] | – | > 10 | > 1.67
14 | CC(C)Oc1ccc(-c2cnc(CNc3cc(-c4cn[nH]c4)nc(C(F)(F)F)c3)nc2)cc1Cl [Compound 47, N-((5-(3-Chloro-4-isopropoxyphenyl)pyrimidin-2-yl)methyl)-2-(1H-pyrazol-4-yl)-6-(trifluoromethyl)pyridin-4-amine] | 201 to 500 | > 10 | 0.5 to 1
15 | CC(C)Oc1ccc(-c2ncc(CNc3cc(-c4cn[nH]c4)nc(C(F)(F)F)c3)cn2)cc1F [Compound 49, N-((2-(3-Fluoro-4-isopropoxyphenyl)pyrimidin-5-yl)methyl)-2-(1H-pyrazol-4-yl)-6-(trifluoromethyl)pyridin-4-amine] | 101 to 200 | > 10 | > 1.67
16 | Fc1ccccc1Oc1ccc(-c2ncc(CNc3cc(-c4cn[nH]c4)nc(C(F)(F)F)c3)cn2)cc1 [Compound 51, N-((2-(4-(2-Fluorophenoxy)phenyl)pyrimidin-5-yl)methyl)-2-(1H-pyrazol-4-yl)-6-(trifluoromethyl)pyridin-4-amine] | 101 to 200 | > 50 | > 1.67
17 | FC(F)(F)c1cc(NCc2cnc(-c3ccc(Oc4ccc(Cl)cc4)cc3)nc2)cc(-c2cn[nH]c2)n1 [Compound 54, N-((2-(4-(4-Chlorophenoxy)phenyl)pyrimidin-5-yl)methyl)-2-(1H-pyrazol-4-yl)-6-(trifluoromethyl)pyridin-4-amine] | – | > 10 | > 1.67
18 | FC(F)(F)Oc1ccc(-c2ncc(CNc3cc(-c4cn[nH]c4)nc(C(F)(F)F)c3)cn2)cc1 [Compound 55, 2-(1H-Pyrazol-4-yl)-N-((2-(4-(trifluoromethoxy)phenyl)pyrimidin-5-yl)methyl)-6-(trifluoromethyl)pyridin-4-amine] | 201 to 500 | > 10 | > 1.67
19 | Nc1ccc(Oc2ccc(-c3ncc(CNc4cc(-c5cn[nH]c5)nc(C(F)(F)F)c4)cn3)cc2)cc1 [Compound 56, N-((2-(4-(4-Aminophenoxy)phenyl)pyrimidin-5-yl)methyl)-2-(1H-pyrazol-4-yl)-6-(trifluoromethyl)pyridin-4-amine] | 101 to 200 | > 10 | 1.02 to 1.67
20 | CC(C)Oc1ccc(-c2cnc(CNc3cc(-c4cn[nH]c4)nc(C(F)(F)F)c3)cn2)cc1Cl [Compound 57, N-((5-(3-Chloro-4-isopropoxyphenyl)pyrazin-2-yl)methyl)-2-(1H-pyrazol-4-yl)-6-(trifluoromethyl)pyridin-4-amine] | 101 to 200 | > 25 | > 1.67
21 | CC(C)Oc1ccc(-c2ccc(CNc3cc(-c4cn[nH]c4)nc(C(F)(F)F)c3)nn2)cc1Cl [Compound 58, N-((6-(3-Chloro-4-isopropoxyphenyl)pyridazin-3-yl)methyl)-2-(1H-pyrazol-4-yl)-6-(trifluoromethyl)pyridin-4-amine] | 101 to 200 | > 25 | > 1.67
22 | CC(C)Oc1ccc(-c2ncc(CNc3cc(-n4cncn4)nc(C(F)(F)F)c3)cn2)cc1Cl [Compound 60, N-((2-(3-Chloro-4-isopropoxyphenyl)pyrimidin-5-yl)methyl)-2-(1H-1,2,4-triazol-1-yl)-6-(trifluoromethyl)pyridin-4-amine] | 101 to 200 | > 10 | 1.02 to 1.67
23 | FC(F)(F)c1cc(NCc2nc3cc(Oc4ccccc4)ccc3[nH]2)cc(-n2ccnc2)n1 [Compound 61, 2-(1H-imidazol-1-yl)-N-((5-phenoxy-1H-benzo[d]imidazol-2-yl)methyl)-6-(trifluoromethyl)pyridin-4-amine] | 101 to 200 | > 10 | 0.5 to 1
24 | CC(C)Oc1ccc(-c2ncc(CNc3cc(-c4ccc(C#N)nc4)nc(C(F)(F)F)c3)s2)cc1 [Compound 68, 4-(((2-(4-Isopropoxyphenyl)thiazol-5-yl)methyl)amino)-6-(trifluoromethyl)-[2,3′-bipyridine]-6′-carbonitrile] | 201 to 500 | > 25 | > 1.67
